Data from patent publication US8889671B2, “Compounds and methods for treating bacterial infections” (AstraZeneca AB, priority 2013, dated 2014).
In brackets after ≈: the same amount, converted by molar mass. Like-named read-outs stand apart in the source and are kept apart here.

Legend:
Acinetobacter baumannii = experiment: In vitro antibacterial activity of Example 5 (MIC); assay type: cell-based
Escherichia coli = experiment: In vitro antibacterial activity of Example 5 (MIC); assay type: cell-based
Klebsiella oxytoca = experiment: In vitro antibacterial activity of Example 5 (MIC); assay type: cell-based
Pseudomonas aeruginosa = experiment: In vitro antibacterial activity of Example 5 (MIC); assay type: cell-based
Serratia marcescens = experiment: In vitro antibacterial activity of Example 5 (MIC); assay type: cell-based
Staphylococcus aureus = experiment: In vitro antibacterial activity of Example 5 (MIC); assay type: cell-based
Streptococcus pyogenes = experiment: In vitro antibacterial activity of Example 5 (MIC); assay type: cell-based; conditions: for MIC: Streptococcus pyogenes (isolates not further specified)
B. anthracis = experiment: microbe, parasite or virus in culture; assay type: cell-based, Bacillus anthracis

Structure (SMILES): C[C@@H]1CN2c3c(cc4c(N5C(=O)OC[C@@H]5C)noc4c3F)CC3(C(=O)NC(=O)NC3=O)[C@H]2[C@H](C)O1 [Example 5, (2R,4S,4aS)-11-Fluoro-2,4-dimethyl-8-[(4S)-4-methyl-2-oxo-1,3-oxazolidin-3-yl]-1,2,4,4a-tetrahydro-2′H,6H-spiro[1,4-oxazino[4,3-a][1,2]oxazolo[4,5-g]quinoline-5,5′-pyrimidine]-2′,4′,6′(1′H,3′H)-trione]
- MIC (Acinetobacter baumannii): 4 mg/L (≈ 8.21 µM)
- MIC (Acinetobacter baumannii; Acinetobacter baumannii (in vivo strain)): 4 mg/L (≈ 8.21 µM)
- MIC (Acinetobacter baumannii; Acinetobacter baumannii (multi-drug resistant)): 16 mg/L (≈ 32.8 µM)
- MIC (Escherichia coli; ATCC25922, Escherichia coli (ATCC 25922 CLSI QC Strain)): 2 mg/L (≈ 4.1 µM)
- MIC (Escherichia coli; ATCC25922, Escherichia coli (TolC- of ATCC 25922)): < 0.06 mg/L
- MIC (Escherichia coli; ATCC25922, Escherichia coli + 2%Human albumin (ATCC 25922)): < 0.06 mg/L
- MIC (Escherichia coli; ATCC35218, Escherichia coli (ATCC 35218 CLSI QC Strain)): 4 mg/L (≈ 8.21 µM)
- MIC (Escherichia coli; Escherichia coli (K12(W3110))): 2 mg/L (≈ 4.1 µM)
- MIC (Klebsiella oxytoca): 32 mg/L (≈ 65.6 µM)
- MIC (Pseudomonas aeruginosa; PAO1, Pseudomonas aeruginosa (PAO1)): > 64 mg/L
- MIC (Pseudomonas aeruginosa; PAO1, Pseudomonas aeruginosa (PAO1, mexABCDXY-)): 2 mg/L (≈ 4.1 µM)
- MIC (Pseudomonas aeruginosa; Pseudomonas aeruginosa (clinical isolate)): > 64 mg/L
- MIC (Serratia marcescens): > 64 mg/L
- MIC90 (Staphylococcus aureus; 100 strains of S. aureus): 0.25 mg/L (≈ 0.513 µM)
- MIC (Staphylococcus aureus; ATCC29213, Staphylococcus aureus (ATCC 29213, CLSI QC Strain)): 0.125 mg/L (≈ 0.256 µM)
- MIC (Staphylococcus aureus; ATCC29213, Staphylococcus aureus + 2%Human albumin (ATCC 29213, CLSI QC Strain)): 0.25 mg/L
- MIC (Staphylococcus aureus; MRSA / USA100, Staphylococcus aureus (MRSA, USA100)): 0.125 mg/L (≈ 0.256 µM)
- MIC (Staphylococcus aureus; MRSA, Staphylococcus aureus (MRSA)): 0.5 mg/L (≈ 1.03 µM)
- MIC (Staphylococcus aureus; MRSA, Staphylococcus aureus (MRSA, fluoroquinolone-R)): 0.25 mg/L (≈ 0.513 µM)
- MIC (Staphylococcus aureus; MSSA, Staphylococcus aureus (MSSA, in vivo strain)): 0.125 mg/L (≈ 0.256 µM)
- MIC (Staphylococcus aureus; Staphylococcus aureus (In vivo Strain)): 0.25 mg/L (≈ 0.513 µM)
- MIC (Staphylococcus aureus; VISA, Staphylococcus aureus (Mu3, VISA)): 0.25 mg/L (≈ 0.513 µM)
- MIC (Streptococcus pyogenes): 0.25 mg/L (≈ 0.513 µM)
- MIC (Streptococcus pyogenes; Streptococcus pyogenes, read-out: MIC): 0.125 mg/L (≈ 0.256 µM)
- MIC90 (Streptococcus pyogenes; Streptococcus pyogenes, 100 strains of S. pyogenes): 0.25 mg/L (≈ 0.513 µM)
- MIC50 (Streptococcus pyogenes; Streptococcus pyogenes, 100 strains of S. pyogenes, read-out: MIC50 (MICH [sic])): 0.125 mg/L (≈ 0.256 µM)
- MIC range (B. anthracis; B. anthracis, BSL3 testing): 0.125 to 1 mg/L
- MIC90 (B. anthracis; Bacillus anthracis): 0.5 mg/L (≈ 1.03 µM)
